Measured values: PubChem BioAssay (NCI)
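The compound was tested at five concentrations on cells cultured in 96-well plates, with a 48-hour exposure period. GI50 = concentration required for 50% inhibition of growth. The concentration for full growth arrest is given as TGI.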

Experiments:
Test in all cases: NCI-60 cell line screen, 48 h
[1] = tested on: HCC-2998 colon
[2] = tested on: U251 CNS
[3] = tested on: SN12C renal
[4] = tested on: LOX IMVI melanoma
[5] = tested on: COLO 205 colon
[6] = tested on: NCI/ADR-RES ovarian
[7] = tested on: NCI-H23 lung
[8] = tested on: HS 578T breast
[9] = tested on: UACC-62 melanoma
[10] = tested on: SK-MEL-2 melanoma
[11] = tested on: SNB-75 CNS
[12] = tested on: OVCAR-5 ovarian
[13] = tested on: NCI-H522 lung
[14] = tested on: SF-268 CNS
[15] = tested on: DU-145 prostate
[16] = tested on: TK-10 renal
[17] = tested on: MOLT-4 leukemia
[18] = tested on: MCF7 breast
[19] = tested on: SK-MEL-5 melanoma
[20] = tested on: MDA-MB-435
[21] = tested on: UO-31 renal
[22] = tested on: CAKI-1 renal
[23] = tested on: SF-295 CNS
[24] = tested on: RXF 393 renal
[25] = tested on: RPMI-8226 leukemia
[26] = tested on: IGROV1 ovarian
[27] = tested on: A498 renal
[28] = tested on: HOP-92 NSCLC
[29] = tested on: PC-3 prostate
[30] = tested on: M14 melanoma
[31] = tested on: KM12 colon
[32] = tested on: HCT-116 colon
[33] = tested on: HOP-62 NSCLC
[34] = tested on: NCI-H460 lung
[35] = tested on: SK-MEL-28 melanoma
[36] = tested on: MALME-3M melanoma
[37] = tested on: SK-OV-3 ovarian
[38] = tested on: ACHN renal
[39] = tested on: OVCAR-3 ovarian
[40] = tested on: SW-620 colon
[41] = tested on: CCRF-CEM leukemia
[42] = tested on: SF-539 CNS
[43] = tested on: BT-549 breast
[44] = tested on: UACC-257 melanoma
[45] = tested on: A549 NSCLC
[46] = tested on: SNB-19 CNS
[47] = tested on: OVCAR-8 ovarian
[48] = tested on: 786-0 renal
[49] = tested on: T-47D breast
[50] = tested on: OVCAR-4 ovarian
[51] = tested on: HCT-15 colon
[52] = tested on: K-562 leukemia
[53] = tested on: EKVX NSCLC
[54] = tested on: NCI-H226 lung
[55] = tested on: MDA-MB-231 breast
[56] = tested on: HL-60(TB) leukemia
[57] = tested on: HT29 colon

Which results are given for c1ccc(-c2[nH]ncc2-c2ccnc(-c3ccc(OCCN4CCOCC4)cc3)c2)nc1?
GI50 [1]: > 25 µM; TGI [1]: > 25 µM; GI50 [2]: > 25 µM; TGI [2]: > 25 µM; GI50 [3]: > 25 µM; TGI [3]: > 25 µM; GI50 [4]: > 25 µM; TGI [4]: > 25 µM; GI50 [5]: > 25 µM; TGI [5]: > 25 µM; GI50 [6]: > 25 µM; TGI [6]: > 25 µM; GI50 [7]: > 25 µM; TGI [7]: > 25 µM; GI50 [8]: > 25 µM; TGI [8]: > 25 µM; GI50 [9]: > 25 µM; TGI [9]: > 25 µM; GI50 [10]: > 25 µM; TGI [10]: > 25 µM; GI50 [11]: > 25 µM; TGI [11]: > 25 µM; GI50 [12]: > 25 µM; TGI [12]: > 25 µM; GI50 [13]: > 25 µM; TGI [13]: > 25 µM; GI50 [14]: > 25 µM; TGI [14]: > 25 µM; GI50 [15]: > 25 µM; TGI [15]: > 25 µM; GI50 [16]: > 25 µM; TGI [16]: > 25 µM; GI50 [17]: > 25 µM; TGI [17]: > 25 µM; GI50 [18]: > 25 µM; TGI [18]: > 25 µM; GI50 [19]: > 25 µM; TGI [19]: > 25 µM; GI50 [20]: > 25 µM; TGI [20]: > 25 µM; GI50 [21]: 24.3 µM; TGI [21]: > 25 µM; GI50 [22]: > 25 µM; TGI [22]: > 25 µM; GI50 [23]: > 25 µM; TGI [23]: > 25 µM; GI50 [24]: > 25 µM; TGI [24]: > 25 µM; GI50 [25]: > 25 µM; TGI [25]: > 25 µM; GI50 [26]: > 25 µM; TGI [26]: > 25 µM; GI50 [27]: > 25 µM; TGI [27]: > 25 µM; GI50 [28]: > 25 µM; TGI [28]: > 25 µM; GI50 [29]: > 25 µM; TGI [29]: > 25 µM; GI50 [30]: > 25 µM; TGI [30]: > 25 µM; GI50 [31]: > 25 µM; TGI [31]: > 25 µM; GI50 [32]: > 25 µM; TGI [32]: > 25 µM; GI50 [33]: > 25 µM; TGI [33]: > 25 µM; GI50 [34]: > 25 µM; TGI [34]: > 25 µM; GI50 [35]: > 25 µM; TGI [35]: > 25 µM; GI50 [36]: > 25 µM; TGI [36]: > 25 µM; GI50 [37]: > 25 µM; TGI [37]: > 25 µM; GI50 [38]: > 25 µM; TGI [38]: > 25 µM; GI50 [39]: > 25 µM; TGI [39]: > 25 µM; GI50 [40]: > 25 µM; TGI [40]: > 25 µM; GI50 [41]: > 25 µM; TGI [41]: > 25 µM; GI50 [42]: > 25 µM; TGI [42]: > 25 µM; GI50 [43]: > 25 µM; TGI [43]: > 25 µM; GI50 [44]: > 25 µM; TGI [44]: > 25 µM; GI50 [45]: > 25 µM; TGI [45]: > 25 µM; GI50 [46]: > 25 µM; TGI [46]: > 25 µM; GI50 [47]: > 25 µM; TGI [47]: > 25 µM; GI50 [48]: > 25 µM; TGI [48]: > 25 µM; GI50 [49]: > 25 µM; TGI [49]: > 25 µM; GI50 [50]: > 25 µM; TGI [50]: > 25 µM; GI50 [51]: > 25 µM; TGI [51]: > 25 µM; GI50 [52]: 13.2 µM; TGI [52]: > 25 µM; GI50 [53]: > 25 µM; TGI [53]: > 25 µM; GI50 [54]: > 25 µM; TGI [54]: > 25 µM; GI50 [55]: > 25 µM; TGI [55]: > 25 µM; GI50 [56]: > 25 µM; TGI [56]: > 25 µM; GI50 [57]: > 25 µM; TGI [57]: > 25 µM
